Laboratory results as given in US20230212121A1 (DAEGU-GYEONGBUK MEDICAL INNOVATION FOUNDATION, priority 2020, published 2023).
Where two headings read alike, the source gives them in different places.

Tests used:
Assay type in all cases: cell-based
[1] = molecular target: T1, dopamine transporter (DAT) (Homo sapiens, UniProt Q01959); assay: Dopamine reuptake inhibition, [3H]-DA, HEK-293 cells transfected with dopamine transporter cDNA; details: for Triple reuptake inhibition (Ratio %) DAT: compound 1 μM, 20-30 nM [3H]-DA, relative to control without compound = 100%, lower value = more inhibition; for IC50: concentration at which Ratio % is 50%, 6 concentrations 1 nM to 1 μM, read-out: Triple reuptake inhibition (IC50, μM) DAT
T1 construct: expressed in transfected cells; host or cells: HEK-293
Experimental: (§1) In order to evaluate the reuptake inhibitory effect of the compounds of the Examples according to the present invention on serotonin, norepinephrine and dopamine, the experiments below were performed, and the results are shown in Table 17.
(§2) To evaluate the reuptake inhibition effect on dopamine, the dopamine transporter cDNA was transfected using the HEK-293 cell line, and then sub-seeded in a 24 well plate the next day. After removing the medium, each compound of the Examples or Comparative Examples diluted to 1 μM in uptake buffer was added to a concentration of 200 μl/well and cultured at 37° C. for 15 minutes. 100 μl of uptake buffer containing 20-30 nM [3H]-DA was added and cultured at 37° C. for 5 minutes. The reaction solution was quickly removed and washed three times with 1 ml ice-cold uptake buffer. After dissolving the resultant in 1% SDS (0.5 ml), the degree of binding of radioisotope-labeled dopamine to the transporter was measured.
(§3) In addition, when evaluating the reuptake inhibitory effect on dopamine, norepinephrine, and serotonin, the same method was performed without treating each compound of the Examples or Comparative Examples as a control, the degree of binding of radioisotope-labeled dopamine, norepinephrine, and serotonin to the transporter was measured, and by using this as a reference (100%), the triple reuptake inhibitory effect was evaluated as a relative ratio (Ratio %). That is, in the control group, the binding of dopamine, norepinephrine, and serotonin to transporters is not inhibited, but when each compound of the Examples is treated and thus the binding is inhibited, the Ratio % value decreases.
(§4) Meanwhile, the Ratio % values were compared, and in the case of the compounds of Examples 6, 10, 13, 14, 17, 20, 21, 22, 30, 31, 32, 34, 36, 38, 39, 40, 54, 55, 56, 57, 58 and 73 with excellent reuptake inhibitory effects on dopamine, norepinephrine and serotonin, the concentration at which the Ratio % is 50% was calculated using a total of 6 concentrations (1 nM, 5 nM, 10 nM, 50 nM, 100 nM, and 1 μM) and expressed as IC50.

[2] = molecular target: T2, norepinephrine transporter (NET) (Homo sapiens, UniProt P23975); assay: Norepinephrine reuptake inhibition, [3H]-NE, HEK-293 cells transfected with NE transporter cDNA; details: for Triple reuptake inhibition (Ratio %) NET: compound 1 μM, [3H]-NE, relative to control without compound = 100%, lower value = more inhibition; for IC50: concentration at which Ratio % is 50%, 6 concentrations 1 nM to 1 μM, read-out: Triple reuptake inhibition (IC50, μM) NET
T2 construct: expressed in transfected cells; host or cells: HEK-293
Experimental: as §1, §2
(§5) For norepinephrine (NE) and serotonin (5-HT), the degree of binding of radioisotope-labeled norepinephrine or serotonin to the transporter was measured in the same manner as above, except that cells transfected with NE or 5-HT transporter cDNA were used and [3H]—NE or [3H]-5-HT was used as a substrate.
as §3, §4

[3] = molecular target: T3, serotonin transporter (SERT) (Homo sapiens, UniProt P31645); assay: Serotonin reuptake inhibition, [3H]-5-HT, HEK-293 cells transfected with 5-HT transporter cDNA; details: for IC50: concentration at which Ratio % is 50%, 6 concentrations 1 nM to 1 μM, read-out: Triple reuptake inhibition (IC50, μM) SERT
T3 construct: expressed in transfected cells; host or cells: HEK-293
Experimental: as §1, §2, §5, §3, §4

[4] = compound 1 μM, [3H]-5-HT, relative to control without compound = 100%, lower value = more inhibition

T1 sequence (Q01959 whole entry, species assumed): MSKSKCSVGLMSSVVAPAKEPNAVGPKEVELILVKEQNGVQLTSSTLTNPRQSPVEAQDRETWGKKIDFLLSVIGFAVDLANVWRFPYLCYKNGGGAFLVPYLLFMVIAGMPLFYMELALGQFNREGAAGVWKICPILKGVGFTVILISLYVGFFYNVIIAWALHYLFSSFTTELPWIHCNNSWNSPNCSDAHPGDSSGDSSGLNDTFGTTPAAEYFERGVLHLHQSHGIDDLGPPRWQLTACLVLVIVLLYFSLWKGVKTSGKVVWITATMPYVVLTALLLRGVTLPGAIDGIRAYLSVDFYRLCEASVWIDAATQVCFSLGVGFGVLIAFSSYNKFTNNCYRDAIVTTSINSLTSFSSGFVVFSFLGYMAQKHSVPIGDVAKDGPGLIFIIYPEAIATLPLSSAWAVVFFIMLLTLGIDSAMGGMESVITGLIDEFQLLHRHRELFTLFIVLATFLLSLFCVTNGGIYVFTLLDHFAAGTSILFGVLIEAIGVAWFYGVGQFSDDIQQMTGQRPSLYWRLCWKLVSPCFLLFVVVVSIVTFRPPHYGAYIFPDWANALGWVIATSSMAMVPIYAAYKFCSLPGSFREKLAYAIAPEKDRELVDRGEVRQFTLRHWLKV
T2 sequence (P23975 whole entry, species assumed): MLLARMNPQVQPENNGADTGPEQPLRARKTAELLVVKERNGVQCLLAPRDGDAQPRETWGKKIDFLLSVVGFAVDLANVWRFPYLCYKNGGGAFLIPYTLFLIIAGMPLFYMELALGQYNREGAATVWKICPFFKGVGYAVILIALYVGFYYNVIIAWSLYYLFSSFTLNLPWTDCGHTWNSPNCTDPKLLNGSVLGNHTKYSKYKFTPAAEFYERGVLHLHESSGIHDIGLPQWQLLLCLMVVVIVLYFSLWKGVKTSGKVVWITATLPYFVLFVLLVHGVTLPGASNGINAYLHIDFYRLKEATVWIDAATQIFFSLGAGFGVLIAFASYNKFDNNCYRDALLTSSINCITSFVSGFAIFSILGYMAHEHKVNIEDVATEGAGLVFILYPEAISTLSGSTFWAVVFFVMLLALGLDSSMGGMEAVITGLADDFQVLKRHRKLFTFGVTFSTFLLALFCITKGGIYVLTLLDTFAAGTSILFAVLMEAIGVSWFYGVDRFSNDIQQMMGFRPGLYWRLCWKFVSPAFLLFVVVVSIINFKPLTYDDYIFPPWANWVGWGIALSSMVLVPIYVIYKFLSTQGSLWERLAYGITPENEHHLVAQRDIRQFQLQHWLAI
T3 sequence (P31645 whole entry, species assumed): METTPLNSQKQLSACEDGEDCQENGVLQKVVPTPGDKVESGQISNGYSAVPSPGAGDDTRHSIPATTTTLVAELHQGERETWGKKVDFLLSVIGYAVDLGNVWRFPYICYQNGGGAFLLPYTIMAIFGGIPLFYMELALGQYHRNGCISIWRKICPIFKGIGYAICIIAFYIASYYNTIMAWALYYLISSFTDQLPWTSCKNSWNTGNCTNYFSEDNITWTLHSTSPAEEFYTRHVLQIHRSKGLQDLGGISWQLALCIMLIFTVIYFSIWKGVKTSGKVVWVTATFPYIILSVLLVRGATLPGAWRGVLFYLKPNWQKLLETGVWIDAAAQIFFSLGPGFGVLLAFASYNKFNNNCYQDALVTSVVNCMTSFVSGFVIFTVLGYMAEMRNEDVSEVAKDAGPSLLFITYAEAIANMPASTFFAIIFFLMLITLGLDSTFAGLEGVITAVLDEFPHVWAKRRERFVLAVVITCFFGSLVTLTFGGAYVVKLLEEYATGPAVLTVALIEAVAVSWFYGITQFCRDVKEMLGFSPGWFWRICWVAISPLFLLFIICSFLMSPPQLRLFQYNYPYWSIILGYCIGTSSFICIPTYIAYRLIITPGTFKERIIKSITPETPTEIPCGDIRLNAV

Compound	Triple reuptake inhibition (Ratio %) DAT [1]	Triple reuptake inhibition (Ratio %) NET [2]	Triple reuptake inhibition (Ratio %) SERT [3]	Triple reuptake inhibition (Ratio %) SERT [3, 4]	IC50 [1]	IC50 [3]	IC50 [2]
O=S(=O)(NCCN1CCC(Cc2ccccc2)CC1)c1ccc(O)cc1 [Example 1, N-(2-(4-benzylpiperidin-1-yl)ethyl)-4-hydroxybenzenesulfonamide]	65.88%	77.88%	84.98%	–	–	–	–
O=S(=O)(NCCN1CCC(Cc2ccccc2)CC1)c1ccc(F)cc1 [Example 2, N-(2-(4-benzylpiperidin-1-yl)ethyl)-4-fluorobenzenesulfonamide]	73.55%	61.32%	–	100.21%	–	–	–
O=S(=O)(NCCN1CCC(Cc2ccccc2)CC1)c1ccc(Oc2ccccc2)cc1 [Example 3, N-(2-(4-benzylpiperidin-1-yl)ethyl)-4-phenoxybenzenesulfonamide]	50.09%	56.36%	–	62.10%	–	–	–
CCCCOc1ccc(S(=O)(=O)NCCN2CCC(Cc3ccc(Cl)c(Cl)c3)CC2)cc1 [Example 4, 4-butoxy-N-(2-(4-(3,4-dichlorobenzyl)piperidin-1-yl)ethyl)benzenesulfonamide]	88.71%	80.47%	–	76.57%	–	–	–
CCCCOc1ccc(S(=O)(=O)N2CCC(c3c[nH]c4ccccc34)CC2)cc1 [Example 5, 3-(1-((4-butoxyphenyl)sulfonyl)piperidin-4-yl)-1H-indole]	100.55%	94.03%	–	106.55%	–	–	–
CCCCOc1ccc(S(=O)(=O)NCCN2CCC(c3c[nH]c4ccccc34)CC2)cc1 [Example 6]	54.56%	81.97%	–	29.04%	1.99 µM	0.457 µM	–
CCCCOc1ccc(S(=O)(=O)NCCN2CCC(c3c[nH]c4ccc(C)cc34)CC2)cc1 [Example 7, 4-butoxy-N-(2-(4-(5-methyl-1H-indol-3-yl)piperidin-1-yl)ethyl)benzenesulfonamide]	99.63%	88.38%	–	93.29%	–	–	–
CCCCOc1ccc(S(=O)(=O)NCCN2CCC(c3c[nH]c4ccc(OC)cc34)CC2)cc1 [Example 8, 4-butoxy-N-(2-(4-(5-methoxy-1H-indol-3-yl)piperidin-1-yl)ethyl)benzenesulfonamide]	90.67%	79.30%	–	98.57%	–	–	–
CCCCOc1ccc(S(=O)(=O)N2CCC(CCc3ccccc3)CC2)cc1 [Example 9, 1-((4-butoxyphenyl)sulfonyl)-4-phenethylpiperidin]	109.25%	96.32%	–	101.11%	–	–	–
CCCCOc1ccc(S(=O)(=O)NCCCN2CCC(Cc3ccccc3)CC2)cc1 [Example 10, N-(3-(4-benzylpiperidin-1-yl)propyl)-4-butoxybenzenesulfonamide]	41.80%	13.02%	–	24.45%	0.612 µM	0.483 µM	0.168 µM
CCCCOc1ccc(S(=O)(=O)NCCCN2CCC(c3c[nH]c4ccccc34)CC2)cc1 [Example 11, N-(3-(4-(1H-indol-3-yl)piperidin-1-yl)propyl)-4-butoxybenzenesulfonamide]	73.16%	73.79%	–	18.04%	–	–	–
O=S(=O)(NCCCN1CCC(Cc2ccccc2)CC1)c1ccc(Oc2ccccc2)cc1 [Example 13, N-(3-(4-benzylpiperidin-1-yl)propyl)-4-phenoxybenzenesulfonamide]	25.55%	11.04%	–	41.46%	0.872 µM	1.08 µM	0.112 µM
COc1ccc(S(=O)(=O)NCCCN2CCC(Cc3ccccc3)CC2)cc1 [Example 14, N-(3-(4-benzylpiperidin-1-yl)propyl)-4-methoxybenzenesulfonamide]	39.90%	22.30%	–	55.67%	1.26 µM	1.75 µM	0.173 µM
CCCCNc1ccc(S(=O)(=O)NCCCN2CCC(Cc3ccccc3)CC2)cc1 [Example 16, N-(3-(4-benzylpiperidin-1-yl)propyl)-4-(butylamino)benzenesulfonamide]	93.59%	53.45%	–	74.25%	–	–	–
O=C(CCN1CCCCC1)Nc1ccc(S(=O)(=O)NCCCN2CCC(Cc3ccccc3)CC2)cc1 [Example 17, N-(4-(N-(3-(4-benzylpiperidin-1-yl)propyl)sulfamoyl)phenyl)-3-(piperidin-1-yl)propaneamide]	40.96%	58.66%	–	9.28%	5.17 µM	0.057 µM	1.56 µM
CN(C)CCC(=O)Nc1ccc(S(=O)(=O)NCCCN2CCC(Cc3ccccc3)CC2)cc1 [Example 18, N-(4-(N-(3-(4-benzylpiperidin-1-yl)propyl)sulfamoyl)phenyl)-3-(dimethylamino)propaneamide]	65.67%	66.54%	–	–	–	–	–
CCCCOc1ccc(S(=O)(=O)NCCCN2CCC(Cc3ccc(Cl)c(Cl)c3)CC2)cc1 [Example 20, 4-butoxy-N-(3-(4-(3,4-dichlorobenzyl)piperidin-1-yl)propyl)benzenesulfonamide]	56.29%	30.29%	–	40.46%	2.16 µM	0.504 µM	0.221 µM
CCCCOc1ccc(S(=O)(=O)NCCCN2CCC(Cc3ccc(F)c(F)c3)CC2)cc1 [Example 21, 4-butoxy-N-(3-(4-(3,4-difluorobenzyl)piperidinyl)propyl)benzenesulfonamide]	57.35%	26.67%	–	38.74%	4.72 µM	0.455 µM	0.946 µM
CCCCOc1ccc(S(=O)(=O)NCCCN2CCC(c3ccc(Cl)c(Cl)c3)CC2)cc1 [Example 22, 4-butoxy-N-(3-(4-(3,4-dichlorophenyl)piperidinyl)propyl)benzenesulfonamide]	31.02%	36.85%	–	38.07%	1.51 µM	0.609 µM	0.55 µM
CCCCOc1ccc(S(=O)(=O)NCCCN2CCN(c3ccc(Cl)c(Cl)c3)CC2)cc1 [Example 23, 4-butoxy-N-(3-(4-(3,4-dichlorophenyl)piperazin-1-yl)propyl)benzenesulfonamide]	99.56%	83.63%	–	41.32%	–	–	–
CCCCOc1ccc(S(=O)(=O)NCCCN2CCN(c3cccc(Cl)c3Cl)CC2)cc1 [Example 24, 4-butoxy-N-(3-(4-(2,3-dichlorophenyl)piperazin-1-yl)propyl)benzenesulfonamide]	99.30%	58.70%	–	60.27%	–	–	–
CCCCOc1ccc(S(=O)(=O)NCCCN2CCN(CC3CCOCC3)CC2)cc1 [Example 25, 4-butoxy-N-(3-(4-((tetrahydro-2H-pyran-4-yl)methyl)piperazin-1-yl)propyl)benzenesulfonamide]	111.51%	102.91%	–	84.44%	–	–	–
